The record followed here is publication PMC3297363 (Journal of Medicinal Chemistry, 2012).

Read-outs that look alike come from different tables or passages of the source. Some results are limits rather than exact numbers.

The test system of test [1] is 3D7 strain of P. falciparum. The test is described as follows: In vitro antimalarial activity versus 3D7 P. falciparum. Format: cell-based, Plasmodium falciparum.
Test [2] has as its target T1, PfNDH2 (Plasmodium falciparum, UniProt Q8I302).
T1 sequence (Q8I302 1-533): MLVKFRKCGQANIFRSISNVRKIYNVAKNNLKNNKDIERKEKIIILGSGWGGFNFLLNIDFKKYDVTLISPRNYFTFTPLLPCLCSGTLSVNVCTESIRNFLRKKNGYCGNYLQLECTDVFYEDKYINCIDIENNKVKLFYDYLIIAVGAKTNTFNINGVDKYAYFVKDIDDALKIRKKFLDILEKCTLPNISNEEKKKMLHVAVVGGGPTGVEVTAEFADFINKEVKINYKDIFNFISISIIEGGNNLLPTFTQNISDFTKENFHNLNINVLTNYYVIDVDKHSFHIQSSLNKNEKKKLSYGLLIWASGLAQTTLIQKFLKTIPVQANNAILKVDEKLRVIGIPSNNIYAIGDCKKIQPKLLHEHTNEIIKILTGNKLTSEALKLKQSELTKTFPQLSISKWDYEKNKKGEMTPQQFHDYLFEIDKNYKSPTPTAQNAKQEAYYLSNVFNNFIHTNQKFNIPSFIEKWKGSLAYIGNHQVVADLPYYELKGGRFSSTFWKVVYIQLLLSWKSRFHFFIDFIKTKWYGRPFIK
Format: biochemical. As to conditions: PfNDH2 enzyme.

In test [3] the test system is TM90C2B strain of P. falciparum. The test is described as follows: In vitro antimalarial activity versus atovaquone resistant TM90C2B. Format: cell-based. As to conditions: Plasmodium falciparum, read-out: IC50 in TM90C2B strain.

In the case of `COc1cccc2[nH]c(-c3ccc(Cc4ccc(OC(F)(F)F)cc4)cc3)c(C)c(=O)c12` [6m], in test [1] (Plasmodium falciparum, 3D7, read-out: IC50 (nM) 3D7 ± SD, 3D7 strain of P. falciparum, in vitro), the IC50 (in general, the concentration that inhibits the measured activity by half) was > 350 nM.
For the compound `O=c1c(-c2ccc(Oc3ccc(OC(F)(F)F)cc3)cc2)c(CO)[nH]c2ccccc12` [compound 25], in test [2], the “IC50 (nM) PfNDH2” value was “shows no PfNDH2”.
Take `COc1ccc(Cc2ccc(-c3[nH]c4ccccc4c(=O)c3C)cc2)cc1` [6g]: the IC50 in test [1] (read-out: IC50 (nM) 3D7 ± SD, 3D7 strain of P. falciparum, in vitro) is 37 nM.
For `O=C1C(O)=C([C@H]2CC[C@H](c3ccc(Cl)cc3)CC2)C(=O)c2ccccc21` [atovaquone], the IC50 in test [3] amounted to 12000 nM.
